Source: patent US6592911B2, “(−)-Olivil as antioxidant which is obtained from a new natural source namely Stereospermum personatum” (Council of Scientific and Industrial Research, priority 2001, dated 2003)

Experiment: In vitro free radical (DPPH) scavenging antioxidant potency
Format: biochemical
Details: for 50% Radical scavenging concentration of compounds, Concentration: DPPH radical 500 μM in ethanol, tris-HCl buffer pH 7.4, 45 minutes in dark, absorbency at 517 nm, triplicate
Method: In Vitro Evaluation of Free Radical Scavenging Antioxidant Potency
Antioxidant activity of the compounds was tested for its capacity/potency to scavenge most widely used free radical, 1,1-diphenyl-2-picryl hyrazyl radical (DPPH). […] 200 μl of test compounds were reconstituted to 1 ml in tris-HCl buffer (pH 7.4). Equal volume of 500 μM of DPPH radical dissolved in ethanol was reacted with this. After incubation for 45 minutes in dark, the absorbency at 517 nm was recorded. Percent radical scavenging activity was calculated accordingly. All the readings were taken in triplicate.

SMILES | 50% Radical scavenging concentration of compounds, Concentration [µg/mL] | antioxidant activity compared with reference drugs Probucol and alpha-tocopherol (comparison in words)
Cc1c(C)c2c(c(C)c1O)CCC(C)(CCCC(C)CCCC(C)CCCC(C)C)O2 (stereo not drawn) [DL α-Tocopherol, reference compound] | 47.80 | 
COc1cc(C[C@]2(O)CO[C@@H](c3ccc(O)c(OC)c3)[C@@H]2CO)ccc1O [(−)-Olivil] | 22.24 | better than the above mentioned reference drugs
